Source: US8227406B2, “Antimicrobial peptides” (Dermagen AB, priority 2006, dated 2012)
Where “and” joins values, the source holds several entries; their conditions need not be identical. Equal values may be shown once.

Tests used:
[1] = test system: Eschericia coli ATCC25922; test: Radial diffusion assay (RDA), E. coli; format: cell-based, Escherichia coli; design: Data (RDA antimicrobial activity, single replicates) / Mean (RDA antimicrobial activity): unit not given here; conditions: E. coli; for Data (RDA antimicrobial activity, single replicates): individual replicate; for Mean (RDA antimicrobial activity): mean of 3
Protocol: (§1) Peptides. Peptides were from Sigma-Genosys, generated by a peptide synthesis platform (PEPscreen®, Custom Peptide Libraries, SigmaGenosys). Yield was ˜1-6 mg, and peptide length 20 amino acids. MALDI-ToF Mass Spectrometry was perfomed on these peptides. Average Crude Purity of 20mers was ˜60%. Peptides were supplied lyophilized and in a 96-well tube rack. Prior to biological testing the PEPscreen peptides were diluted in dH2O (5 mM stock), and stored at −20 C. This stock solution was used for the subsequent experiments.
(§2) Eschericia coli ATCC25922, Staphylococcus aureus ATCC29213, and the fungal isolate Candida albicans ATCC90028 were obtained from the Department of Bacteriology, Lund University Hospital.
(§3) Radial diffusion assays (RDA) were performed essentially as described earlier (Lehrer, R. I., Rosenman, M., Harwig, S. S., Jackson, R. & Eisenhauer, P. (1991) Ultrasensitive assays for endogenous antimicrobial polypeptides, J Immunol Methods. 137, 167-73). Briefly, bacteria (E. coli, S. aureus) or fungi (C. albicans) were grown to midlogarithmic phase in 10 ml of full-strength (3% w/v) trypticase soy broth (TSB) (Becton-Dickinson, Cockeysville, Md.). The microorganisms were washed once with 10 mM Tris, pH 7.4. 4×10^6 bacterial cfu or 1×10^5 fungal cfu was added to 5 ml of the underlay agarose gel, consisting of 0.03% (w/v) TSB, 1% (w/v) low-electroendoosmosistype (Low-EEO) agarose (Sigma, St Louise Mo.) and a final concentration of 0.02% (v/v) Tween 20 (Sigma). The underlay was poured into a Ø 85 mm petri dish. After agarose solidified, 4 mm-diameter wells were punched and 6 μl of test sample was added to each well. Plates were incubated at 37° C. for 3 hours to allow diffusion of the peptides. The underlay gel was then covered with 5 ml of molten overlay (6% TSB and 1% Low-EEO agarose in dH2O). Antimicrobial activity of a peptide is visualized as a clear zone around each well after 18-24 hours of incubation at 37° C. for bacteria and 28° C. for Candida albicans. Other examples of peptides that were screened and found to show an increased effect against the above mentioned microorgansism are listed below. Some of the results are found in table 1c showing the effects against C. albicans, table 1d E. coli and table 1e S. aureus.

[2] = test system: Staphylococcus aureus ATCC29213; test: Radial diffusion assay (RDA), S. aureus; format: cell-based; design: Data (RDA antimicrobial activity, single replicates) / Mean (RDA antimicrobial activity): unit not given here; conditions: S. aureus; for Data (RDA antimicrobial activity, single replicates): individual replicate; for Mean (RDA antimicrobial activity): mean of 3
Protocol: as §1, §2, §3

[3] = test system: Candida albicans ATCC90028; test: Radial diffusion assay (RDA), C. albicans; format: cell-based; design: unit not given here; conditions: Table 1c; for RDA Data (single replicates), C. albicans: individual values
Protocol: as §1, §2, §3

Substance: PKRKKKGGKNGKNRRNRKKKNWWW [PKR-21-WWW]
- Data (RDA antimicrobial activity, single replicates) ([1]; peptide 0.1 μM): 0
- Mean (RDA antimicrobial activity) ([1]; peptide 0.1 μM): 0.00
- Data (RDA antimicrobial activity, single replicates) ([1]; peptide 0.5 μM): 1.26 and 1.05 and 0.84
- Mean (RDA antimicrobial activity) ([1]; peptide 0.5 μM): 1.05
- Data (RDA antimicrobial activity, single replicates) ([1]; peptide 1 μM): 3.6 and 2.59 and 3.49
- Mean (RDA antimicrobial activity) ([1]; peptide 1 μM): 3.23
- Data (RDA antimicrobial activity, single replicates) ([1]; peptide 5 μM): 4.99 and 5.03 and 4.75
- Mean (RDA antimicrobial activity) ([1]; peptide 5 μM): 4.92
- Data (RDA antimicrobial activity, single replicates) ([1]; peptide 10 μM): 5.86 and 5.87 and 6.13
- Mean (RDA antimicrobial activity) ([1]; peptide 10 μM): 5.95
- Data (RDA antimicrobial activity, single replicates) ([1]; peptide 50 μM): 7.71 and 7.97 and 6.98
- Mean (RDA antimicrobial activity) ([1]; peptide 50 μM): 7.55
- Data (RDA antimicrobial activity, single replicates) ([1]; peptide 100 μM): 7.34 and 8.26 and 7.99
- Mean (RDA antimicrobial activity) ([1]; peptide 100 μM): 7.86
- Data (RDA antimicrobial activity, single replicates) ([2]; peptide 0.1 μM): 0
- Mean (RDA antimicrobial activity) ([2]; peptide 0.1 μM): 0.00
- Data (RDA antimicrobial activity, single replicates) ([2]; peptide 0.5 μM): 0
- Mean (RDA antimicrobial activity) ([2]; peptide 0.5 μM): 0.00
- Data (RDA antimicrobial activity, single replicates) ([2]; peptide 1 μM): 2.56 and 2.59 and 3.06
- Mean (RDA antimicrobial activity) ([2]; peptide 1 μM): 2.74
- Data (RDA antimicrobial activity, single replicates) ([2]; peptide 5 μM): 2.98 and 2.5 and 3.07
- Mean (RDA antimicrobial activity) ([2]; peptide 5 μM): 2.85
- Data (RDA antimicrobial activity, single replicates) ([2]; peptide 10 μM): 3.53 and 4.06 and 3.83
- Mean (RDA antimicrobial activity) ([2]; peptide 10 μM): 3.81
- Data (RDA antimicrobial activity, single replicates) ([2]; peptide 50 μM): 4.21 and 5.14 and 4.23
- Mean (RDA antimicrobial activity) ([2]; peptide 50 μM): 4.53
- Data (RDA antimicrobial activity, single replicates) ([2]; peptide 100 μM): 4.77 and 5.67 and 5.02
- Mean (RDA antimicrobial activity) ([2]; peptide 100 μM): 5.15
- RDA Mean, C. albicans ([3]; peptide 0.1 μM): 0.00
- RDA Data (single replicates), C. albicans ([3]; peptide 0.1 μM): 0.00
- RDA Mean, C. albicans ([3]; peptide 0.5 μM): 0.00
- RDA Data (single replicates), C. albicans ([3]; peptide 0.5 μM): 0.00
- RDA Mean, C. albicans ([3]; peptide 1 μM): 0.49
- RDA Data (single replicates), C. albicans ([3]; peptide 1 μM): 0.55 and 0.42 and 0.51
- RDA Mean, C. albicans ([3]; peptide 5 μM): 1.14
- RDA Data (single replicates), C. albicans ([3]; peptide 5 μM): 1.26 and 1.06 and 1.10
- RDA Mean, C. albicans ([3]; peptide 10 μM): 3.11
- RDA Data (single replicates), C. albicans ([3]; peptide 10 μM): 3.54 and 2.82 and 2.97
- RDA Mean, C. albicans ([3]; peptide 50 μM): 5.47
- RDA Data (single replicates), C. albicans ([3]; peptide 50 μM): 5.84 and 5.44 and 5.13
- RDA Mean, C. albicans ([3]; peptide 100 μM): 6.97
- RDA Data (single replicates), C. albicans ([3]; peptide 100 μM): 6.69 and 7.04 and 7.19

Substance: GKRKKKGKGLGKKRDPCLRKYKWWW [GKR-22-WWW]
- Data (RDA antimicrobial activity, single replicates) ([1]; peptide 0.1 μM): 0
- Mean (RDA antimicrobial activity) ([1]; peptide 0.1 μM): 0.00
- Data (RDA antimicrobial activity, single replicates) ([1]; peptide 0.5 μM): 0.14 and 0.85 and 0.17
- Mean (RDA antimicrobial activity) ([1]; peptide 0.5 μM): 0.39
- Data (RDA antimicrobial activity, single replicates) ([1]; peptide 1 μM): 2.74 and 3.2 and 2.59
- Mean (RDA antimicrobial activity) ([1]; peptide 1 μM): 2.84
- Data (RDA antimicrobial activity, single replicates) ([1]; peptide 5 μM): 2.97 and 3.58 and 3.2
- Mean (RDA antimicrobial activity) ([1]; peptide 5 μM): 3.25
- Data (RDA antimicrobial activity, single replicates) ([1]; peptide 10 μM): 5.67 and 5.68 and 5.48
- Mean (RDA antimicrobial activity) ([1]; peptide 10 μM): 5.61
- Data (RDA antimicrobial activity, single replicates) ([1]; peptide 50 μM): 6.61 and 6.64 and 6.47
- Mean (RDA antimicrobial activity) ([1]; peptide 50 μM): 6.57
- Data (RDA antimicrobial activity, single replicates) ([1]; peptide 100 μM): 7.8 and 8.04 and 8.12
- Mean (RDA antimicrobial activity) ([1]; peptide 100 μM): 7.99
- Data (RDA antimicrobial activity, single replicates) ([2]; peptide 0.1 μM): 0
- Mean (RDA antimicrobial activity) ([2]; peptide 0.1 μM): 0.00
- Data (RDA antimicrobial activity, single replicates) ([2]; peptide 0.5 μM): 0.36 and 0.49 and 0.6
- Mean (RDA antimicrobial activity) ([2]; peptide 0.5 μM): 0.48
- Data (RDA antimicrobial activity, single replicates) ([2]; peptide 1 μM): 3.6 and 3.67 and 3.78
- Mean (RDA antimicrobial activity) ([2]; peptide 1 μM): 3.68
- Data (RDA antimicrobial activity, single replicates) ([2]; peptide 5 μM): 3.87 and 4.57 and 4.53
- Mean (RDA antimicrobial activity) ([2]; peptide 5 μM): 4.32
- Data (RDA antimicrobial activity, single replicates) ([2]; peptide 10 μM): 6.04 and 6.87 and 5.73
- Mean (RDA antimicrobial activity) ([2]; peptide 10 μM): 6.21
- Data (RDA antimicrobial activity, single replicates) ([2]; peptide 50 μM): 7.12 and 8.12 and 7.41
- Mean (RDA antimicrobial activity) ([2]; peptide 50 μM): 7.55
- Data (RDA antimicrobial activity, single replicates) ([2]; peptide 100 μM): 7.4 and 8.78 and 8.05
- Mean (RDA antimicrobial activity) ([2]; peptide 100 μM): 8.08
- RDA Mean, C. albicans ([3]; peptide 0.1 μM): 0.00
- RDA Data (single replicates), C. albicans ([3]; peptide 0.1 μM): 0.00
- RDA Mean, C. albicans ([3]; peptide 0.5 μM): 0.00
- RDA Data (single replicates), C. albicans ([3]; peptide 0.5 μM): 0.00
- RDA Mean, C. albicans ([3]; peptide 1 μM): 0.00
- RDA Data (single replicates), C. albicans ([3]; peptide 1 μM): 0.00
- RDA Mean, C. albicans ([3]; peptide 5 μM): 0.00
- RDA Data (single replicates), C. albicans ([3]; peptide 5 μM): 0.00
- RDA Mean, C. albicans ([3]; peptide 10 μM): 0.66
- RDA Data (single replicates), C. albicans ([3]; peptide 10 μM): 0.50 and 0.94 and 0.54
- RDA Mean, C. albicans ([3]; peptide 50 μM): 1.65
- RDA Data (single replicates), C. albicans ([3]; peptide 50 μM): 1.95 and 1.59 and 1.40
- RDA Mean, C. albicans ([3]; peptide 100 μM): 5.55
- RDA Data (single replicates), C. albicans ([3]; peptide 100 μM): 5.30 and 5.74 and 5.62

Substance: GKR-22: growth factor derived peptide, untagged parent of GKR22WWW; sequence not printed (GKRKKKGKGLGKKRDPCLRKYK; listed as Homo sapiens)
- Data (RDA antimicrobial activity, single replicates) ([1]; peptide 0.1 μM): 0
- Mean (RDA antimicrobial activity) ([1]; peptide 0.1 μM): 0.00
- Data (RDA antimicrobial activity, single replicates) ([1]; peptide 0.5 μM): 0
- Mean (RDA antimicrobial activity) ([1]; peptide 0.5 μM): 0.00
- Data (RDA antimicrobial activity, single replicates) ([1]; peptide 1 μM): 0
- Mean (RDA antimicrobial activity) ([1]; peptide 1 μM): 0.00
- Data (RDA antimicrobial activity, single replicates) ([1]; peptide 5 μM): 1.88 and 1.85 and 2.07
- Mean (RDA antimicrobial activity) ([1]; peptide 5 μM): 1.93
- Data (RDA antimicrobial activity, single replicates) ([1]; peptide 10 μM): 2.07 and 3.47 and 2.74
- Mean (RDA antimicrobial activity) ([1]; peptide 10 μM): 2.76
- Data (RDA antimicrobial activity, single replicates) ([1]; peptide 50 μM): 3.68 and 3.65 and 3.61
- Mean (RDA antimicrobial activity) ([1]; peptide 50 μM): 3.65
- Data (RDA antimicrobial activity, single replicates) ([1]; peptide 100 μM): 4.5 and 5.24 and 4.19
- Mean (RDA antimicrobial activity) ([1]; peptide 100 μM): 4.64
- Data (RDA antimicrobial activity, single replicates) ([2]; peptide 0.1 μM): 0
- Mean (RDA antimicrobial activity) ([2]; peptide 0.1 μM): 0.00
- Data (RDA antimicrobial activity, single replicates) ([2]; peptide 0.5 μM): 0
- Mean (RDA antimicrobial activity) ([2]; peptide 0.5 μM): 0.00
- Data (RDA antimicrobial activity, single replicates) ([2]; peptide 1 μM): 0.4 and 0.26 and 0.25
- Mean (RDA antimicrobial activity) ([2]; peptide 1 μM): 0.30
- Data (RDA antimicrobial activity, single replicates) ([2]; peptide 5 μM): 1.87 and 1.67 and 2.03
- Mean (RDA antimicrobial activity) ([2]; peptide 5 μM): 1.86
- Data (RDA antimicrobial activity, single replicates) ([2]; peptide 10 μM): 2.37 and 2.46 and 1.95
- Mean (RDA antimicrobial activity) ([2]; peptide 10 μM): 2.26
- Data (RDA antimicrobial activity, single replicates) ([2]; peptide 50 μM): 3.03 and 3.09 and 2.96
- Mean (RDA antimicrobial activity) ([2]; peptide 50 μM): 3.03
- Data (RDA antimicrobial activity, single replicates) ([2]; peptide 100 μM): 3.88 and 3.94 and 3.07
- Mean (RDA antimicrobial activity) ([2]; peptide 100 μM): 3.63
- RDA Mean, C. albicans ([3]; peptide 0.1 μM): 0.00
- RDA Data (single replicates), C. albicans ([3]; peptide 0.1 μM): 0.00
- RDA Mean, C. albicans ([3]; peptide 0.5 μM): 0.00
- RDA Data (single replicates), C. albicans ([3]; peptide 0.5 μM): 0.00
- RDA Mean, C. albicans ([3]; peptide 1 μM): 0.00
- RDA Data (single replicates), C. albicans ([3]; peptide 1 μM): 0.00
- RDA Mean, C. albicans ([3]; peptide 5 μM): 0.00
- RDA Data (single replicates), C. albicans ([3]; peptide 5 μM): 0.00
- RDA Mean, C. albicans ([3]; peptide 10 μM): 0.00
- RDA Data (single replicates), C. albicans ([3]; peptide 10 μM): 0.00
- RDA Mean, C. albicans ([3]; peptide 50 μM): 1.04
- RDA Data (single replicates), C. albicans ([3]; peptide 50 μM): 1.04 and 1.08 and 1.01
- RDA Mean, C. albicans ([3]; peptide 100 μM): 3.16
- RDA Data (single replicates), C. albicans ([3]; peptide 100 μM): 3.66 and 3.31 and 2.50
